The structures appear in SMILES notation. Values after ≈ are worked out from the molar mass of the structure shown. Read-outs that look alike come from different tables or passages of the source. Where only a bound is given, the exact number is not on record here.

For one series, the system named is E. Coli. The series is described as follows: Minimum inhibitory concentration, E. Coli (Gram negative). In kind it is cell-based. To be noted: Escherichia coli. Here is the method:
(§1) The minimum inhibitory concentrations (MIC) against different Gram positive and Gram negative microorganisms, and fungi, were determined and the results are shown in Table 2 below.

The subject of a further series is Ps. aer. The series is described as follows: Minimum inhibitory concentration, Ps. aer. (Gram negative). In kind it is cell-based. The method, then: as §1
Another series has as its system Strept. py. The series is described as follows: Minimum inhibitory concentration, Strept. py. (Gram positive). In kind it is cell-based. Here is the method:
as §1

For the next series, the system named is Staph. aur. As to the kind of experiment: Minimum inhibitory concentration, Staph. aur. (Gram positive). In kind it is cell-based. Here is the method:
as §1

The subject of a further series is Fungi. The series is described as follows: Minimum inhibitory concentration, Fungi. In kind it is cell-based. The method, then:
as §1

Series [1] is described as follows: Solubility in Water (Table 1). In kind it is physicochemical. The text has this:
The results in Table I below illustrates the water solubility of the free base and hydrochloride salts of the invention versus chlorhexidine.

The conditions of series [2]: cited from earlier work.
In a further series the test system is bacterial spores. Particulars: room temperature; cited from earlier work.
The next series deals with bacteria. Particulars: cited from earlier work.
For series [3] the following is noted: cited from earlier work. This is another data set of the same source.
[4] abbreviates: HCl salt, pH 5.5, read-out: Solubility in water, HCl Salt (pH 5.5).
Where [5] appears, read: free base, pH 8.5, read-out: Solubility in water, Free Base (pH 8.5).

As usually defined, the MIC is the smallest concentration in the dilution series that meets the test's criterion for growth inhibition. A low value points to greater potency. With `N=C(NCCCCCCNC(=N)NC(=N)Nc1ccc(Cl)cc1)NC(=N)Nc1ccc(Cl)cc1` [Chlorhexidine gluconate, reference compound], the MIC against E. Coli is 5 µg/mL; in the series on Ps. aer., 50 µg/mL; against Strept. py., 5 µg/mL; against Staph. aur. it was 2.5 µg/mL; against Fungi it was more than 200 µg/mL.

As usually defined, the solubility is how much of the substance goes into solution per volume. `[H]/N=C(\N/C(=N/[H])NCCCCCCNC(=N)NC(=N)Nc1ccc(Cl)cc1)Nc1ccc(Cl)cc1` [Chlorhexidine, 1,6-bis(4-chlorophenylbiguanido)-hexane]: the solubility in series [1] (setting [4]) came to 18 mg/mL; in series [1] (setting [5]) it was 0.08 mg/mL (≈ 158 µM). The “water solubility for the free base” value in series [2] is “low water solubility”. Moreover, the “activity against bacterial spores” value in the series with bacterial spores is “inactivity against bacterial spores”. The “antibacterial activity at low pH” value in the series with bacteria (pH below 5) is reported as “deteriorates”. Moreover, the “antibacterial activity, pH dependence” value in the series with bacteria (pH range 5-8) is reported as “pH dependent”. The “compatibility in formulations containing surface active agents” value in series [3] was “incompatability”.

On to `N=C(NCCCCCCNC(=N)NC(=N)NCCN1CCCC1=O)NC(=N)NCCN1CCCC1=O` [Ex. 4, 1,6-Bis[1-(2-Pyrrolidonylethyl)biguanido]hexane:2HCl], for which the solubility in [1] (setting [4]) is 500 mg/mL; in [1] (setting [5]), 50 mg/mL. Further, the MIC was 250 µg/mL in the series with E. Coli; 250 µg/mL in the series with Ps. aer.; not above 50 µg/mL against Strept. py.; not above 100 µg/mL in the series with Staph. aur.; 100 µg/mL against Fungi.

Regarding `N=C(NCCCCCCCCCCCCNC(=N)NC(=N)NCCN1CCCC1=O)NC(=N)NCCN1CCCC1=O` [Ex. 5, 1,12-Bis[1-(2-Pyrrolidonylethyl)biguanido]dodecane:2HCl], the values for the solubility in series [1] (setting [4]) and in [1] (setting [5]) were 500 mg/mL and 20 mg/mL, respectively. Moreover, the MIC was 250 µg/mL against E. Coli; more than 500 µg/mL against Ps. aer.; not above 50 µg/mL against Strept. py.; not above 50 µg/mL in the series on Staph. aur.; not above 50 µg/mL against Fungi.

On to `N=C(NCCOCCOCCNC(=N)NC(=N)NCCN1CCCC1=O)NC(=N)NCCN1CCCC1=O` [Ex. 6, 1,2-Bis[1-(2-pyrrolidonylethyl)-5-(2-Ethoxybiguanido)]ethane:2HCl], for which the solubility in series [1] (setting [4]) and in series [1] (setting [5]) was 500 mg/mL throughout. Also, the MIC in the series with E. Coli is 100 µg/mL; in the series with Ps. aer. it was not above 100 µg/mL; with Strept. py., not above 50 µg/mL; against Staph. aur., more than 500 µg/mL; against Fungi, not above 50 µg/mL.

Source of the values: US4952704A, “Bis-(pyrrolidonyl alkylene) biguanides” (GAF Chemicals Corporation, priority 1989, dated 1990).
